The target in data set [1] is T1, MRGPRX2 (Homo sapiens, UniProt Q96LB1).
T1 sequence (Q96LB1 1-330): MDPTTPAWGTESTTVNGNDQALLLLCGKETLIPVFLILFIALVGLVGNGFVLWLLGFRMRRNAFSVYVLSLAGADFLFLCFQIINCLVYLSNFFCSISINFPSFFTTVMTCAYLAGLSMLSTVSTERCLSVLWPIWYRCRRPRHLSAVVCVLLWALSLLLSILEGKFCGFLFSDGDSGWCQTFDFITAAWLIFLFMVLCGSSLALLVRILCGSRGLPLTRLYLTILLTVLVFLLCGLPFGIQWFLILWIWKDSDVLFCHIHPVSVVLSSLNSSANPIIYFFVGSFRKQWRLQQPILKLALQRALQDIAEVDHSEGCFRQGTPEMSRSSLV
Kind of data set: β-arrestin assay (agonist mode), β-arrestin CHO cells recombinantly expressing MRGPRX2. Conditions: for EC50: agonist test, read-out: β-Arrestin assay EC50 ± SEM; for β-Arrestin assay % activation: normalized to CST-14 (EC80 5,000 nM). The class given is cell-based. The source says:
Eurofins DiscoverX (Fremont, CA, USA) provided engineered Chinese hamster ovary (CHO) cells stably expressing β-arrestin-2 fused to a large β-galactosidase fragment (enzyme acceptor, EA). These CHO-K1-β-arrestin-2 cells were commercially available (93-0164). CHO-K1-β-arrestin-2 cells that additionally expressed MRGPRX1, -2, or -4 fused to the fragment ProLink™ (PK) were also purchased from the same company (93-0919C2, 93-0309C2, and 3-0541C2A, respectively). CHO cells expressing MRGPRX3 were generated as previously […].[31] The cells were grown in F-12 Ham Nutrient Mixture (Life Technologies) supplemented with 10% FBS, 100 U/mL of penicillin, 100 µg/mL of streptomycin (PAN-Biotech), 300 μg/mL of hygromycin B (PAN-Biotech), and 800 μg/mL of gentamicin (PAN-Biotech) at 37 °C and 5% CO2.).
The assays were carried out as previously described.[22] […] After 30 min of incubation at 37 °C and 5% CO2, Cortistatin-14 (CST-14, Bioscience, Bristol, United Kingdom) or another MRGPRX2 agonist that served as a standard agonist was added, and the mixture was incubated for 90 min at 37 °C and 5% CO2. Next, a detection reagent (50 µL, DiscoverX) was added, and the mixture was incubated at room temperature in the dark for 60 min. Chemiluminescence was measured on a Mithras LB 940 plate reader (Berthold Technologies, Bad Wildbad, Germany). The results represent means ± SEM of three to five independent experiments, each in duplicates.
^d β-Arrestin CHO cells recombinantly expressing MRGPRX2
^f Percentage of activation of normalized to CST-14 (EC80 5,000 nM)

Data set [2] in a line: MTT cytotoxicity assay, 1321N1 astrocytoma cells. The class given is cell-based. The note with it: human; for cytotoxicity at 72 h, 10000 nM: up to 10,000 nM, read-out: Cytotoxicity % effect. As to the method:
Potential cytotoxicity of 24 and its similarly potent analogs 27 and 30 was assessed in 3-(4,5-dimethylthiazol-2-yl)-2,5-diphenyl-2H-tetrazolium bromide (MTT) assays performed on human 1321N1 astrocytoma cells (Supplementary Table S3). This cell line was chosen since it is well-established for the screening of cytotoxic drugs, making it a reliable choice for assessing cytotoxicity.[46]
For the experiment, 1321N1 astrocytoma cells were seeded at a density of 1 × 10^5 cells/well in 180 µL of cell medium into transparent 96-well plates, whereby the outer wells only contained buffer (to avoid an edge effect). Cells were incubated for 24 h at 37°C, 5% CO2. Compound dilutions were prepared in DMSO. […] Subsequently, 20 µL of these compound dilutions were added to each well so that astrocytoma cells were incubated with varying concentrations of MRGPRX2 antagonists (0.01 µM–10 µM) at 37° C, 5% CO2. 5-Fluoruracil, a cytostatic drug, served as a positive control. Medium-containing DMSO in the absence of a compound served as a negative control. After 71 h, […] of MTT solution (5 mg/mL, prepared in Millipore water) was added to each well (final concentration 0.5 mg/mL) and cells were incubated again for another hour. Subsequently, the medium was removed, and cells were lyzed by adding 100 µL of DMSO per well. In order to dissolve the produced formazan dye crystals, plates were incubated for 2 min on a rotary shaker (150 rpm). Afterward, the UV absorbance at 570 nm was measured by using SoftMax® Pro5.1 Microplate Data Acquisition & Analysis Software (Molecular Devices, Sunnyvale, CA, USA). The UV absorbance at 690 nm was measured directly afterward to eliminate the background absorbance of residual medium and cell components. The values of the measured UV absorbance at 690 nm were subtracted from the values obtained by the measurement of UV absorbance at 570 nm. Three to four independent experiments were performed, each in triplicate.
In general terms: Formazan colour is commonly taken as a measure of viable cells.

The target of data set [3] is T1, MRGPRX2. Kind of data set: Ca2+ mobilization assay, LN229 cells overexpressing MRGPRX2. Conditions: for Ki: versus CST-14 (EC80 800 nM, EC50 452 nM), Cheng-Prusoff, read-out: Ca2+ assay Ki ± SEM; for MRGPRX2 antagonistic potency in Ca2+ assay, in words: versus CST-14. The format is cell-based. On the set-up: expressed in transfected cells; host or cells: LN229 human glioblastoma cells; plasmid pLXSN-MRGPRX2 (Addgene #213960). As to the method:
Glioblastoma LN229-MRGPRX2 stably expressing MRGPRX2 (produced by retroviral transfection) were seeded into black sterile 96-well microplates at a density of 5 × 10^4 cells/well in 200 µL of DMEM/F12-Nut Mix medium, supplemented with 10% FCS, 100 U/mL of penicillin 100 µg/mL of streptomycin, and 200 µg/mL of G418 and incubated for 18–22 h.
The next day Fluo-4 AM Solution (1 mM) (Thermo Fisher Scientific) was prepared and used to prepare cell loading dye solution consisting of 4970 µL of Hank’s Buffered Saline Solution (HBSS) buffer, 15 µL of 20% Pluronic-F and 15 µL of 1 mM Fluo-4 AM. Next, the cell medium was removed and exchanged for 40 µL of dye solution per well (final concentration of Fluo-4 AM: 3 µM). The cell plate was incubated for 60 min in the dark at room temperature, then the dye solution was removed and replaced by 189 µL HBSS. Subsequently, 1 µL of antagonist diluted in DMSO was added and incubated for 30 min at room temperature and in the dark (final DMSO concentration 0.5%, v/v). CST-14 or another agonist prepared in HBSS as well as carbachol (final concentration 100 µM) were pipetted (10 µL) using a FlexStation® 3 Multi-Mode Microplate Reader. For the determination of baseline fluorescence, HBSS buffer containing solvent of the investigated compound was used. Fluorescence was measured for 120 intervals of 1 s (number of flashes: 10) at a wavelength of 525 nm (excitation 485 nm) using the SoftMax® Pro5.1 Microplate Data Acquisition & Analysis Software. Three independent experiments were performed in duplicates. Measurements are provided in relative fluorescence units and normalized to the maximal effect of CST-14.
(Calcium assays in cells follow changes in intracellular calcium, usually with a dye or a luminescent sensor.)

A short description of data set [4]: Metabolic stability in human liver microsomes. The class given is in vitro ADME. Conditions: both sexes, human liver microsomes 0.25 mg/ml, compound 1 µM; for half-life at 1 µM: human, liver microsomes, read-out: T1/2 (half-life); for microsomal CLint at 1 µM: read-out: Clint (intrinsic clearance). (Microsomes from liver hold many membrane-bound enzymes, among them those of drug oxidation.)

The target in data set [5] is T1, MRGPRX2. Briefly: β-arrestin recruitment assay (antagonist mode), β-arrestin-CHO cells recombinantly expressing MRGPRX2. The note with it: versus CST-14 (EC80 1,000 nM, EC50 483 nM); Cheng-Prusoff; read-out: β-Arrestin assay Ki ± SEM. Details: expressed in transfected cells. The class given is cell-based.
Data set [6] deals with T1, MRGPRX2. Details: expressed in transfected cells; host or cells: LN229 human glioblastoma cells; plasmid pLXSN-MRGPRX2 (Addgene #213960); method as in earlier work. Conditions: read-out: EC50 as MRGPRX2 agonist; cited from earlier work.

Each structure is given as a SMILES string. Like-named read-outs stand apart in the source and are kept apart here.

In the case of `CCc1c(C(C)C)[nH]c2nc3cc(C)c(C)cc3n2c1=O` [Compound 27], in data set [1], the EC50 (in general, the concentration that produces a half-maximal response) was greater than 10000 nM and the “β-Arrestin assay % activation” value came to 0%. In data set [2], the CC50 (commonly the concentration giving 50% cytotoxicity) at 72 h is greater than 10000 nM and the cytotoxicity at 72 h, 10000 nM was 28%. Further, in data set [3], the “fold less potent than 24” value is on record as 5 fold; the Ki – broadly, the dissociation constant of the complex between target and ligand, obtained from inhibition or displacement – came out at 6.64 nM. In addition, in data set [4], the half-life at 1 µM is 10.6 min and the microsomal CLint at 1 µM amounted to 131 µL/min/mg. In data set [5], the Ki came out at 28.5 ± 23.9 nM.
As for `CCc1c(C(C)C)[nH]c2nc3cc(C)ccc3n2c1=O` [Compound 29], in data set [1], the EC50 is greater than 10000 nM and the “β-Arrestin assay % activation” value is -2%. Further, in data set [3], the “fold improved potency compared to 27” value was 40 fold; the “MRGPRX2 antagonistic potency in Ca2+ assay, in words” value (shortened to “MRGPRX2 antagonistic potency”) is “subnanomolar potencies”; the Ki is 0.161 nM. The Ki in data set [5] turned out to be 29.6 ± 19 nM.
With `CCc1c(C(C)C)[nH]c2nc3cc(F)ccc3n2c1=O` [Compound 30, 3-ethyl-8-fluoro-2-isopropylbenzo[4,5]imidazo[1,2-a]pyrimidin-4(1H)-one], in data set [1], the EC50 was greater than 10000 nM and the “β-Arrestin assay % activation” value is listed as -3%. In data set [2], the CC50 at 72 h was greater than 10000 nM and the cytotoxicity at 72 h, 10000 nM is 30%. Further, in data set [3], the “MRGPRX2 antagonistic potency” value is “subnanomolar potencies” and the Ki is 0.455 nM. Also, in data set [4], the half-life at 1 µM worked out at 14 min and the microsomal CLint at 1 µM turned out to be 100 µL/min/mg. Besides, the Ki in data set [5] worked out at 5.89 ± 2.86 nM.
Take `CCc1c(C(C)C)[nH]c2nc3ncc(F)cc3n2c1=O` [Compound 32]: in data set [1], the EC50 was greater than 10000 nM and the “β-Arrestin assay % activation” value is -3%. In addition, in data set [3], the “MRGPRX2 antagonistic potency” value is “reduced potency dramatically” and the Ki came out at 931 ± 685 nM. The Ki in data set [5] turned out to be 824 ± 553 nM.
Consider `CCc1c(C(C)C)[nH]c2nc3nc(F)ccc3n2c1=O` [Compound 33], for which, in data set [3], the “MRGPRX2 antagonistic potency” value is “reduced potency dramatically” and the Ki came out at 906 ± 137 nM. In data set [4], the half-life at 1 µM turned out to be 48.8 min and the microsomal CLint at 1 µM is 28.4 µL/min/mg. In addition, the Ki in data set [5] came to 1610 nM.
For the compound `CN(C)[C@@H]1CCN(c2cc(-c3ccccc3)nc3ccnn23)C1` [ZINC-3573], the EC50 in data set [6] was 760 nM.

The values are drawn from PMC12010006, “Subnanomolar MAS-related G protein-coupled receptor-X2/B2 antagonists with efficacy in human mast cells and disease models” (Signal Transduction and Targeted Therapy, 2025).
